Experimental data: publication PMC12734371, “Synthesis, Anti-Tumour, and Antibacterial Activities of Monocarbonyl Curcumin Analogues of Piperidones” (International Journal of Molecular Sciences, 2025)
Values after ≈ are worked out from the molar mass of the structure shown. “Also recorded” adds a separate entry of the source. Where two headings read alike, the source gives them in different places.

Legend:
[1] = test system: A549 cells; experiment: MTT assay, inhibition of tumour cell growth; type: cell-based, human; conditions: mean ± s, n = 3
Protocol: (§1) The tumour cell suspension in logarithmic growth phase, containing about 5 × 10^3 cells, was taken and seeded onto a 96-well plate and gently shaken to disperse the cells evenly at the bottom of the plate. The cells were incubated in a constant temperature (37 °C) incubator for 24 h. The old medium was discarded, and 100 μL of the prepared working solution of piperidinone monocarbonyl curcumin analogues at different concentrations was added, and the cells were incubated in a constant temperature incubator for 24 h. Blank medium wells, blank cell wells, and 0.9% DMSO (highest content) wells were set up, with 6 multi-well and 3 multi-plates for each concentration. The discarded old medium was absorbed, and 100 μL of 10% 5 mg/mL MTT working solution was added to each well (operated away from light) and placed in a cell incubator for further incubation for 4 h. The old medium was discarded, and 100 μL of DMSO was added to each well and shaken in an air shaker at 100 RPM for 10 min. The absorbance of the OD value was measured at 490 nm by a multifunctional microplate analyzer. According to Formula (1), the inhibition rates of different piperidones monocarbonyl curcumin analograms on 4 tumour cells were calculated, and IC50 was calculated by GraphPad Prism 8.0:Inhibition rate (%) = (OD blank cell group − OD administration group)/OD blank cell group(1)

[2] = test system: Hela cells; experiment: MTT assay, inhibition of tumour cell growth; type: cell-based, human; conditions: 24 h, mean ± s, n = 3
Protocol: as §1

[3] = test system: HepG2 cells; experiment: MTT assay, inhibition of tumour cell growth; type: cell-based, human; conditions: mean ± s, n = 3
Protocol: as §1

[4] = test system: MCF-7 cells; experiment: MTT assay, inhibition of tumour cell growth; type: cell-based, human; conditions: mean ± s, n = 3
Protocol: as §1

[5] = test system: L02 cells; experiment: MTT assay, toxicity to human normal liver cells; type: cell-based; conditions: mean ± s, n = 3
Protocol: The cells were passaged to the fourth generation of L02 cells, and the cell suspension containing about 5 × 10^3 cells was added to each well of the 96-well plate and cultured in a cell culture incubator for 24 h. The old medium was discarded, and different concentrations of liquid medicine (6 porous and 3 plates for each concentration) were added and incubated for 24 h. The old medium was discarded, 10% of 5 mg/mL MTT working solution was added in the dark, and the cells were incubated in a cell incubator for 4 h. The old medium was discarded, 100 μL DMSO was added to each well, and 100 RPM was oscillated on an air shaker for 10 min. The OD value was measured at 490 nm with a multifunctional microplate reader. According to the OD value, the inhibition rate of different piperidone monocarbonyl curcumin analogues on L02 cells was calculated according to Formula (1), and IC50 was calculated by Graph Pad Prism 8.0.

[6] = test system: A549 cells; experiment: Flow cytometry apoptosis (Annexin V/PI); type: cell-based, human; conditions: 24 h
Protocol: The A549 cells in logarithmic growth phase were inoculated in 6-well plates at 1 × 10^6 cells. After resting in the incubator for 24 h, the cells were treated with different concentrations of drugs. The blank control group was added with the medium with the highest concentration of DMSO. After 24 h of culture, cells were collected, washed with PBS, transferred to a flow tube, and resuspended with 100 μL of 1 × Annexin V conjugate. Add 4 μL YF4/88-Annexin N and 5 μL PI working solution. The cells were incubated in the dark at room temperature for 10 min, transferred to a flow cytometer tube, added with 200 μL of 1 × Annexin V conjugate, and immediately detected by flow cytometry.

[7] = test system: MRSA; experiment: Broth microdilution inhibition test and MIC; type: cell-based, methicillin-resistant Staphylococcus aureus; conditions: for MIC: broth microdilution
Protocol: Then, the MIC values of 100% compounds at the maximum inhibitory concentration were obtained by the broth microdilution method. The specific experiments are as follows: First, in the 96-well plate, add 100 μL of compound working solution from column 2 to column 8, with concentrations decreasing from high to low, repeating each concentration 6 times. Add 100 μL of NB nutrient broth containing 1% DMSO to column 9, and 100 μL of blank NB nutrient broth to columns 10 and 11. Then, add 10 μL of bacterial suspension to each well from columns 2 to 10. Place the 96-well plate in a 37 °C incubator for 16 h at 100 rpm and measure the absorbance at 600 nm by microplate reader. Columns 2 to 9 represent the drug treatment group, column 10 is the negative control group, and column 11 is the blank control group. The minimum concentration that inhibits bacterial growth is the MIC value of the compound: Bacterial inhibition rate (%) = (OD administration − OD control)/(ODcontrol − OD blank) (3)

[8] = test system: MRSA; experiment: AGAR plate zone of inhibition test (filter paper); type: cell-based, methicillin-resistant Staphylococcus aureus; conditions: 160 μmol/L, 6 mm filter paper, 16 h, mean ± s; for zone of inhibition at 160 µM: Staphylococcus aureus, n = 3, read-out: Diameter of Bacteriostatic Zone
Protocol: Based on the results of previous experiments, the promising compounds were selected, and the size of the inhibition zone at 160 μmol/L was determined. The specific operation was as follows: The nutrient agar medium, after high temperature sterilization, was poured into about 20 mL per 9 cm plate in an ultra-clean bench and naturally cooled and solidified. Each plate was evenly coated with 100 μL MRSA bacterial suspension. The filter paper of 6 mm diameter soaked in the drug solution was dried by flame evaporation, and four tablets were placed in parallel into each plate, cultured in a constant temperature incubator at 37 °C for 16 h, and the size of the inhibition zone was measured.

[9] = test system: A549 cells; experiment: Cell wound scratch assay (migration); type: cell-based, human; conditions: 6 h; high, medium, and low concentrations
Protocol: A549 cells in logarithmic phase were digested with 0.25% trypsin and blown to single cell suspension with a dropper. The cell density was adjusted to 5 × 10^5 cells/mL. The cells were inoculated on 6-well plates, 2 mL per well, and cultured in a cell incubator at 37 °C, 5% CO2, and saturated humidity for 24 h until the gaps were basically fused. A 10 μL micro pipette tip was used to scratch vertically in a 6-well plate. After washing with PBS solution 3 times, the drug-containing medium was added, 2 mL per well, and three wells were set in each group. The culture plates were placed in a 5% CO2 incubator at 37 °C for 6 h and 24 h and observed and photographed with an inverted fluorescence microscope. The images were obtained by NIS Elements Viewer 4.2.0, and the scratch area and width were calculated. The cell migration rate was calculated by Formula (2):[Cell migration rate (%) = (0 h scratch area − scratch area at different times)/0 h scratch area × 100%](2)

[10] = test system: A549 cells; experiment: Cell morphology by inverted microscope; type: cell-based, human; conditions: 5 μmol/L, 24 h
Protocol: The cells were inoculated in a 6-well plate, and about 1 × 10^6 A549 cells in the logarithmic growth phase were inoculated in each well. After the cells were cultured in a constant temperature incubator for 24 h, the old medium was discarded, and five kinds of piperidone monocarbonyl curcumin analogue solution (5, 10, and 20 μmol/L), curcumin (10, 20, and 40 μmol/L), and 0.9% DMSO were added as the blank control group for 24 h, and then the cell morphology was observed by inverted microscope (200×).

[11] = test system: ERK (extracellular regulated protein kinases); experiment: Western blot, ERK level in A549 cells; type: cell-based, human; conditions: 10, 5, 2.5 μmol/L, 24 h
Protocol: A549 cells in logarithmic growth phase were seeded in 6-well plates at 1 × 10^6 cells/mL per well. The cells were cultured overnight in an incubator. Different concentrations of drug-containing medium of 2,5-2Cl, 2Br-5Cl, 2-Cl, 2-F, benzaldehyde ([…]), curcumin (20 μmol/L), and cisplatin (30 μmol/L) were added, and the blank control […] The RIPA cell lysis buffer containing protease inhibitors was added to the Petri dish to collect the proteins of each experimental group, and the supernatant was collected as a protein sample after ultrasonic centrifugation. Protein quantification was performed by the BCA method. A total of 20 μg protein was separated by 10% SDS-PAGE, and then the protein was transferred to a PVDF membrane. The membrane was blocked with 5% skim milk for 1 h, and the corresponding primary antibody was incubated at 4 °C overnight. After washing the membrane three times with TBST, the bands were incubated with the corresponding secondary antibodies at room temperature for 1 h. After cleaning the membrane with TBST 3 times, the darkroom was developed with ECL luminescence. Using GAPDH as an internal reference, the protein bands were analyzed by ImageJ 1.8.0.

[12] = test system: MRSA; experiment: Time inhibition curve against MRSA; type: cell-based, methicillin-resistant Staphylococcus aureus; conditions: 160 μmol/L and 80 μmol/L
Protocol: Based on the results of previous experiments, the promising compounds were selected. According to the administration method under ‘2.3.2’, the absorbance values of the promising compounds at 600 nm at different concentrations of bacteria at 4, 14, 18, and 24 h were measured by a microplate reader, and the inhibitory effect of the compounds on MRSA at different time points was calculated. The time inhibition curve of the compound against MRSA was made with the abscissa as the time and the ordinate as the bacterial inhibition rate.

Row | Compound | IC50 ([1]; 24 h) [µM] | IC50 [2] [µM] | IC50 ([3]; 24 h) [µM] | IC50 ([4]; 24 h) [µM] | also measured
1 | O=C1C(=Cc2cccc(Br)c2)CNCC1=Cc1cccc(Br)c1 [3-Br] | > 40 | > 40 | 18.3 ± 3.44 | 22.5 ± 3.55 | 
2 | O=C1C(=Cc2ccc(Br)cc2F)CNCC1=Cc1ccc(Br)cc1F [4Br-2F] | 20.2 ± 4.15 | 18.7 ± 3.66 | 16.4 ± 1.97 | 28.5 ± 2.91 | 
3 | O=C1C(=Cc2ccc(Cl)cc2Br)CNCC1=Cc1ccc(Cl)cc1Br [2Br-4Cl] | 18.2 ± 3.15 | 23.4 ± 3.34 | 27.3 ± 2.64 | > 40 | 
4 | COc1cc(/C=C/C(=O)CC(=O)/C=C/c2ccc(O)c(OC)c2)ccc1O [Curcumin] |  |  |  |  | IC50 ([1]; Homo sapiens, A549, 24 h): 33.5 ± 3.83 µM; IC50 ([2]; Homo sapiens, HeLa): 29.2 ± 2.57 µM; IC50 ([3]; Homo sapiens, HepG2, 24 h): 17.6 ± 3.43 µM; IC50 ([4]; Homo sapiens, MCF7, 24 h): 39.2 ± 2.81 µM; IC50 ([5]; Homo sapiens, L02, 24 h): 30.4 ± 1.04 µM; Proportion of normal cells (flow cytometry) ([6]; 20 μmol/L): 84.27%
5 | NC[C@H]1O[C@H](O[C@H]2[C@H](O)[C@@H](O[C@H]3O[C@H](CO)[C@@H](O)[C@H](N)[C@H]3O)[C@H](N)C[C@@H]2N)[C@H](N)C[C@@H]1O [Tobramycin, reference compound] |  |  |  |  | inhibition at 70 µM ([7]; Staphylococcus aureus, MRSA, 70 μmol/L, read-out: Inhibition rate of MRSA): < 100%; inhibition at 80 µM ([7]; Staphylococcus aureus, MRSA, 80 μmol/L, read-out: Inhibition rate of MRSA): 100%; inhibition at 160 µM ([7]; Staphylococcus aureus, MRSA, 160 μmol/L): 100%; MIC ([7]; Staphylococcus aureus, MRSA, read-out: MIC): 80 µM (≈ 37.4 µg/mL); zone of inhibition at 160 µM [8]: 10.7 ± 0.58 mm
6 | O=C1C(=Cc2ccc(F)cc2Br)CNCC1=Cc1ccc(F)cc1Br [2Br-4F] | 21.8 ± 3.68 | > 40 | 18.3 ± 4.38 | > 40 | 
7 | N.N.[Cl][Pt][Cl] [Cisplatin solution, reference compound] | 41.2 ± 3.49 | 59.4 ± 1.7 | 27.7 ± 3.26 | 55.2 ± 4.09 | IC50 ([5]; 24 h): 48.4 ± 3.83 µM; Proportion of normal cells (flow cytometry) ([6]; 30 μmol/L): 86.27%
8 | 3,5-Bis(3,5-dibromo-benzyl)-4-piperidone [3,5-2Br] | > 40 | 12.8 ± 3.18 | > 40 | > 40 | 
9 | O=C1C(=Cc2ccc(Cl)c(Cl)c2)CNCC1=Cc1ccc(Cl)c(Cl)c1 [3,4-2Cl, 3,5-Bis(3,4-dichlorobenzylidene)-4-piperidone] |  |  |  |  | IC50 ([1]; Homo sapiens, A549, 24 h): 11.9 ± 4.64 µM; IC50 ([2]; Homo sapiens, HeLa): > 40 µM; IC50 ([3]; Homo sapiens, HepG2, 24 h): > 40 µM; IC50 ([4]; Homo sapiens, MCF7, 24 h): > 40 µM
10 | 3,5-Bis(2-bromo-benzyl)-4-piperidone | 16.6 ± 1.84 | 12.3 ± 2.67 | 7.03 ± 3.24 | > 40 | 
11 | O=C1C(=Cc2cc(Cl)ccc2Br)CNCC1=Cc1cc(Cl)ccc1Br [2Br-5Cl] | 4.75 ± 1.51 | 6.24 ± 2.46 | 8.42 ± 1.99 | 6.36 ± 1.28 | IC50 ([5]; 24 h): 58.2 ± 2.79 µM; Cell migration rate vs blank control (0.9% DMSO) [9]: no statistical difference; Cell morphology [10]: most of the cells became round and loose; ERK protein level vs control group [11]: significantly lower; also recorded: most obvious
12 | CC1(C)S[C@@H]2[C@H](NC(=O)Cc3ccccc3)C(=O)N2[C@H]1C(=O)O [Penicillin] |  |  |  |  | zone of inhibition at 160 µM [8]: 8.67 ± 0.58 mm
13 | O=C1C(=Cc2ccccc2Cl)CNCC1=Cc1ccccc1Cl [2-Cl] | 4.81 ± 1.69 | 6.61 ± 1.93 | 8.53 ± 2.61 | 5.7 ± 1.21 | IC50 ([5]; 24 h): 70.5 ± 1.85 µM; Cell migration rate vs blank control (0.9% DMSO) [9]: no statistical difference; Cell morphology [10]: most of the cells became round and loose; ERK protein level vs control group [11]: significantly lower; Inhibition rate of MRSA ([7]; 60 μmol/L): less than 100%; Inhibition rate of MRSA ([7]; 70 μmol/L): 100%; Inhibition of MRSA ([7]; 160 μmol/L): 100%; MIC ([7]; MRSA): 70 µM (≈ 24.1 µg/mL); Inhibition rate of MRSA over time ([12]; 18 h): 100%; Inhibition rate of MRSA over time ([12]; 24 h): 87.02%; Diameter of Bacteriostatic Zone ([8]; n = 3): 14.67 ± 0.58 mm
14 | O=C1C(=Cc2cc(Br)ccc2Cl)CNCC1=Cc1cc(Br)ccc1Cl [5Br-2Cl] | 14.2 ± 3.85 | > 40 | 29.3 ± 2.94 | > 40 | 
15 | 3,5-Bis(4-bromo-benzyl)-4-piperidinone | 15.5 ± 2.35 | > 40 | 7.15 ± 4.62 | 19.7 ± 3.68 | 
